Laboratory results published in ChEMBL document CHEMBL5380808, “Design, Synthesis, and Biological Activity of Marinacarboline Analogues as STAT3 Pathway Inhibitors for Docetaxel-Resistant Triple-Negative Breast Cancer” (J Med Chem, 2023).
Activity calls are given as the source filed them. The calls are words filed in the database; no cut-off is given here.

Legend:
[1] = Induction of cell cycle arrest in docetaxel-resistant human MDA-MB-231-DTR cells assessed as accumulation at G0/G1 phase at 10 uM incubated for 36 hrs by PI staining based flow cytometry analysis (reference value: 74.77%); type: functional
[2] = Synergistic antiproliferative activity against docetaxel-resistant human MDA-MB-231-DTR cells assessed as combination index at 8 uM incubated for 72 hrs in presence of 2 uM of docetaxel by Chou-Talalay method; type: functional
[3] = biological target: Signal transducer and activator of transcription 3 (Homo sapiens) (UniProt P40763); assay: Inhibition of STAT3 phosphorylation at Y705 residue in human MDA-MB-231 cells assessed as decrease in phosphorylated STAT3 level at 5 uM incubated for 24 hrs by Western blot analysis; type: cell-based
[4] = Synergistic antiproliferative activity against docetaxel-resistant human MDA-MB-231-DTR cells assessed as combination index at 8 uM incubated for 72 hrs in presence of 1 uM of docetaxel by Chou-Talalay method; type: functional
MDA-MB-231 [5] = assay: Induction of apoptosis in docetaxel-resistant human MDA-MB-231-DTR cells assessed as downregulation of survivin expression level at 2.5 to 10 uM incubated for 48 hrs by Western blot analysis; type: functional, cell-based; settings: dose 2.5-10 µM
MDA-MB-231 [6] = assay: Induction of apoptosis in docetaxel-resistant human MDA-MB-231-DTR cells assessed as upregulation of cleaved-PARP expression level at 2.5 to 10 uM incubated for 48 hrs by Western blot analysis; type: functional, cell-based; settings: dose 2.5-10 µM
MDA-MB-231 [7] = assay: Induction of cell cycle arrest at G2/M phase in docetaxel-resistant human MDA-MB-231-DTR cells assessed as upregulation of Chk1 phosphorylation at S345 at 2.5 to 10 uM incubated for 36 hrs by Western blot analysis; type: functional, cell-based; settings: dose 2.5-10 µM
[8] = Toxicity in BALB/c mouse xenografted with docetaxel-resistant human MDA-MB-231-DTR cells assessed as body weight change at 5 mg/kg, ip daily for 12 days; type: organism-based; settings: in vivo, 288 h, time 12 day
MDA-MB-231 [9] = assay: Induction of apoptosis in docetaxel-resistant human MDA-MB-231-DTR cells assessed as upregulation of cleaved-caspase-3 expression level at 2.5 to 10 uM incubated for 48 hrs by Western blot analysis; type: functional, cell-based; settings: dose 2.5-10 µM
[10] = Induction of apoptosis in docetaxel-resistant human MDA-MB-231-DTR cells assessed as increase in total cell death at 5 uM incubated for 48 hrs by Annexin V-FITC and PI staining based flow cytometry; type: functional
MDA-MB-231 [11] = assay: Induction of cell cycle arrest at G2/M phase in docetaxel-resistant human MDA-MB-231-DTR cells assessed as upregulation of Chk2 phosphorylation at T68 at 2.5 to 10 uM incubated for 36 hrs by Western blot analysis; type: functional, cell-based; settings: dose 2.5-10 µM
[12] = Induction of cell cycle arrest in docetaxel-resistant human MDA-MB-231-DTR cells assessed as accumulation at G2/M phase at 5 uM incubated for 36 hrs by PI staining based flow cytometry analysis (reference value: 13.16%); type: functional
MDA-MB-231 [13] = assay: Inhibition of cell migration in docetaxel-resistant human MDA-MB-231-DTR cells assessed as downregulation of vimentin expression level at 3 to 6 uM incubated for 24 hrs by Western blot analysis; type: functional, cell-based; settings: dose 3-6 µM
MDA-MB-231 [14] = assay: Induction of apoptosis in docetaxel-resistant human MDA-MB-231-DTR cells assessed as upregulation of cleaved-caspase-9 expression level at 2.5 to 10 uM incubated for 48 hrs by Western blot analysis; type: functional, cell-based; settings: dose 2.5-10 µM
MDA-MB-231 [15] = assay: Antitumor activity against docetaxel-resistant human MDA-MB-231-DTR cells xenografted in BALB/c mouse assessed as reduction in tumor weight at 10 mg/kg, ip daily for 12 days in presence of docetaxel; type: functional, organism-based; settings: time 12.0 day
MDA-MB-231 [16] = assay: Antitumor activity against docetaxel-resistant human MDA-MB-231-DTR cells xenografted in BALB/c mouse assessed as downregulation of phosphorylated STAT3 level in tumor tissue at 10 mg/kg, ip daily for 12 days by Immunohistochemical analysis; type: functional, organism-based; settings: time 12.0 day
[17] = Induction of cell cycle arrest in docetaxel-resistant human MDA-MB-231-DTR cells assessed as accumulation at G2/M phase at 5 uM incubated for 48 hrs by PI staining based flow cytometry analysis (reference value: 13.54%); type: functional
[18] = Induction of apoptosis in docetaxel-resistant human MDA-MB-231-DTR cells assessed as increase in total cell death at 2.5 uM incubated for 48 hrs by Annexin V-FITC and PI staining based flow cytometry; type: functional
[19] = Synergistic antiproliferative activity against docetaxel-resistant human MDA-MB-231-DTR cells assessed as combination index at 8 uM incubated for 72 hrs in presence of 4 uM of docetaxel by Chou-Talalay method; type: functional
MDA-MB-231 [20] = assay: Inhibition of cell migration in docetaxel-resistant human MDA-MB-231-DTR cells at 3 to 6 uM incubated for 24 hrs by microscopy based wound healing assay; type: functional; settings: dose 3-6 µM
[21] = Induction of cell cycle arrest in docetaxel-resistant human MDA-MB-231-DTR cells assessed as accumulation at G2/M phase at 5 uM incubated for 24 hrs by PI staining based flow cytometry analysis (reference value: 13.54%); type: functional
MDA-MB-231 [22] = assay: Inhibition of cell migration in docetaxel-resistant human MDA-MB-231-DTR cells assessed as downregulation of N-cadherin expression level at 3 to 6 uM incubated for 24 hrs by Western blot analysis; type: functional, cell-based; settings: dose 3-6 µM
[23] = Synergistic antiproliferative activity against docetaxel-resistant human MDA-MB-231-DTR cells assessed as combination index at 4 uM incubated for 72 hrs in presence of 2 uM of docetaxel by Chou-Talalay method; type: functional
[24] = Induction of cell cycle arrest in docetaxel-resistant human MDA-MB-231-DTR cells assessed as accumulation at subG1 phase at 5 uM incubated for 12 hrs by PI staining based flow cytometry analysis (reference value: 0.41%); type: functional
[25] = Induction of cell cycle arrest in docetaxel-resistant human MDA-MB-231-DTR cells assessed as accumulation at G0/G1 phase at 5 uM incubated for 12 hrs by PI staining based flow cytometry analysis (reference value: 75.49%); type: functional
[26] = Cytotoxicity against human MRC5 cells assessed as reduction in cell viability incubated for 72 hrs by sulforhodamine B assay; type: toxicity, cell-based
[27] = Antiproliferative activity against docetaxel-resistant human MDA-MB-231-DTR cells assessed as reduction in cell viability incubated for 72 hrs by MTT assay; type: functional, cell-based; settings: MDA-MB-231, 72 h
[28] = Induction of cell cycle arrest in docetaxel-resistant human MDA-MB-231-DTR cells assessed as accumulation at G2/M phase at 5 uM incubated for 12 hrs by PI staining based flow cytometry analysis (reference value: 13.54%); type: functional
[29] = Induction of cell cycle arrest in docetaxel-resistant human MDA-MB-231-DTR cells assessed as accumulation at subG1 phase at 5 uM incubated for 24 hrs by PI staining based flow cytometry analysis (reference value: 0.41%); type: functional
[30] = Synergistic antiproliferative activity against docetaxel-resistant human MDA-MB-231-DTR cells assessed as combination index at 2 uM incubated for 72 hrs in presence of 4 uM of docetaxel by Chou-Talalay method; type: functional

Sequence of Signal transducer and activator of transcription 3 (Homo sapiens) (P40763 whole entry): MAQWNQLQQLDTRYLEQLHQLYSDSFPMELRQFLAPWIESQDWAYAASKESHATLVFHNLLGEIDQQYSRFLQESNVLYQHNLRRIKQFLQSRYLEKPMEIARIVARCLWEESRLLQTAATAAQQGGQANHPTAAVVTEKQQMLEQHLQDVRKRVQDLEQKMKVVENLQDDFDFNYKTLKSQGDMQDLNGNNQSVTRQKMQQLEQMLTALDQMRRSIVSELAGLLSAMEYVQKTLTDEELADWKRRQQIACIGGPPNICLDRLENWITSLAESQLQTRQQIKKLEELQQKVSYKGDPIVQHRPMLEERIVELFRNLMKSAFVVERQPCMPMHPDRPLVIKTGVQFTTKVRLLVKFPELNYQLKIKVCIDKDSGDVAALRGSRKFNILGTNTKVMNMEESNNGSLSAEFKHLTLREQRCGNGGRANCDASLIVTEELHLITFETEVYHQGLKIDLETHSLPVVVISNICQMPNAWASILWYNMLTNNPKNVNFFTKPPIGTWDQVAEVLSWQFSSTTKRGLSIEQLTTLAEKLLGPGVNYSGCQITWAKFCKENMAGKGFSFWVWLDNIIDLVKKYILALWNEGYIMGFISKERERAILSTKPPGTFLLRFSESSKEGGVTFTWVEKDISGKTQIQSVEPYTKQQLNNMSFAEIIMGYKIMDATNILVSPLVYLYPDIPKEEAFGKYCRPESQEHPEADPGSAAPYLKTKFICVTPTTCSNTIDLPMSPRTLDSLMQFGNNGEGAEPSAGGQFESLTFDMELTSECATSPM

O=C(NCCc1c[nH]c2ccccc12)c1cc2c([nH]c3ccccc32)c(C(=O)c2ccc(Br)cc2)n1
Activity [1]: 51.09% | CI [2]: 0.45 | inhibition [3]: Active | CI [4]: 0.66 | Activity (MDA-MB-231 [5]): Active | Activity (MDA-MB-231 [6]): Active | Activity (MDA-MB-231 [7]): Active | Activity [8]: Non-Toxic | Activity (MDA-MB-231 [9]): Active | Activity [10]: 18.79% | Activity (MDA-MB-231 [11]): Active | Activity [12]: 24.58% | inhibition (MDA-MB-231 [13]): Active | Activity (MDA-MB-231 [14]): Active | Activity (MDA-MB-231 [15]): Active | Activity (MDA-MB-231 [16]): Active | Activity [17]: 12.87% | Activity [18]: 5.55% | CI [19]: 0.32 | inhibition (MDA-MB-231 [20]): Dose-Dependent Effect | Activity [21]: 21.18% | inhibition (MDA-MB-231 [22]): Active | CI [23]: 0.53 | Activity [24]: 0.82% | Activity [25]: 88.84% | IC50 at 72 h [26]: 33.2 µM | IC50 [27]: 3.24 µM | Activity [28]: 17.91% | Activity [29]: 1.75% | CI [30]: 0.32
